# Source: the METLIN SMRT retention time set (Domingo-Almenara et al. 2019)
# Assay: gradient 5% acetonitrile 3 min, to 50% in 2 min, to 85% in 15 min, held 3 min, 100 µL/min
# Settings: column: Zorbax Extend-C18 2.1 x 50 mm; eluents: water / acetonitrile, 0.1% formic acid
# Method in brief: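 Retention times come from adduct peaks that were picked computationally and then checked by hand. The standards, pure and pooled in mixtures of ~100 molecules, were run on a Zorbax Extend-C18 column (2.1 × 50 mm, 1.8 μm) at 100 μL/min with water and acetonitrile, each with 0.1% formic acid. Detection was by quadrupole time-of-flight mass spectrometry in positive and negative ionization mode, with a dead volume of 40 μL and a dwell volume of 900 μL.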
row,RP-LC retention time,SMILES
1,894 s,Cc1ccc2c(Sc3ccc(Cl)cc3)c(C(=O)N3CCN(c4ccccn4)CC3)[nH]c2c1
2,1100 s,Cc1nn(C(C)C(=O)Nc2ccc(F)cc2F)c(=O)c2c(-n3cccc3)n(-c3ccccc3)nc12 (stereo not drawn)
3,1080 s,COc1ccc(Cl)cc1NC(=O)CC1CCCCN1S(=O)(=O)c1ccc(F)cc1 (stereo not drawn)
4,865 s,CCc1ccccc1NC(=O)Cc1c(C)n(C)c2nc(-c3ccccc3)nn2c1=O
5,757 s,Cc1ccc(CNC(=O)c2cccc(CN3C(=O)C4CCCN4C(=O)c4ccccc43)c2)o1 (stereo not drawn)
6,1200 s,C=Cc1ccc(Cn2nc(-c3nc(-c4ccc(F)cc4)no3)ccc2=O)cc1
7,775 s,CCOc1ccccc1NC(=O)Cn1ncc2c(c1=O)N(C1CC1)C(=O)CS2
8,1190 s,Cc1ccc(S(=O)(=O)c2cnc(N3CCN(c4cccc(Cl)c4)CC3)nc2N)cc1
9,669 s,Cc1cccc(-c2nc3ccccn3c2NC(=O)NCc2cccc(F)c2)c1
10,836 s,COc1cccc(N2CCN(c3ccnc(SCC(=O)Nc4cc(F)ccc4Cl)n3)CC2)c1
11,655 s,O=C(CCc1c(-c2ccc(Cl)cc2)nc2ccccn12)NCc1ccco1
12,641 s,CCc1nc2cc(CNC(=O)Cc3ccc(Cl)cc3)ccc2n1C
13,750 s,Cc1nc2cc(N3CC(C(=O)NCc4ccc(F)c(Cl)c4)CC3=O)ccc2o1 (stereo not drawn)
14,651 s,CCn1cc(CCNC(=O)Cc2cccs2)c2cccnc21
15,1210 s,CCn1c(C(=O)NCc2ccc(Cl)cc2)cc2sccc21
16,1070 s,COc1ccc(NC(=O)N2CCCC2c2nc(-c3cccc(Cl)c3)no2)c(OC)c1 (stereo not drawn)

row,RP-LC retention time,SMILES
1,671 s,CC(C)n1c(CCNC(=O)c2ccc(F)cc2F)nc2cccnc21
2,1220 s,COc1ccc(Cl)cc1NS(=O)(=O)c1cc(-c2cc(C(F)(F)F)on2)sc1C
3,1130 s,COC(=O)c1cc(C2CC2)nc2c1c(=O)n(Cc1cccc(F)c1)c(=O)n2C
4,805 s,O=C(Nc1ccc(F)cc1)N1CCC(n2cnc3c(Cl)cccc3c2=O)CC1
5,726 s,Cc1ccc(Nc2c(-c3ccc(O)cc3)nc3ccc(Br)cn23)cc1
6,1050 s,CCc1ccc(NC(=O)Cn2c(=O)cc(-c3nc(C4CC4)no3)c3ccccc32)cc1
7,1060 s,CCn1cc(-c2nc(C(=O)NCc3ccccc3C)cs2)c2cccnc21
8,950 s,COc1ccccc1-c1noc(Cn2c(=O)n(-c3ccc(Cl)cc3)c(=O)c3sccc32)n1
9,770 s,O=C(Nc1cccc(-c2ccc(N3CCOCC3)nn2)c1)Nc1cccc(Cl)c1F
10,784 s,O=C(Nc1ccc(C(F)(F)F)cc1)N1CC(n2cnnc2-c2ccccc2)C1
11,1260 s,Cc1ccc(-c2coc(-c3ccc(NC(=O)NCCc4ccccc4)cc3)n2)c(C)c1
12,940 s,CC(C)N1C(=O)c2cccnc2Sc2cc(NC(=O)Cc3cccc(Cl)c3)ccc21
13,927 s,O=C(NCc1csc(-c2cccs2)n1)C1CCN(S(=O)(=O)c2ccc(Cl)cc2)CC1
14,823 s,CN1c2ccc(F)cc2C(=O)NC12CCN(C(=O)c1ccc(F)c(Cl)c1)CC2
15,1250 s,O=C(COc1ccc(Cl)cc1Cl)Nc1nc(-c2ccc(F)cc2)cs1

# More lines, now with the values behind:
row,SMILES,RP-LC retention time
1,Cc1ccc(CN2CCN(C3CCN(C(=O)Nc4ccc(F)cc4F)CC3)C(=O)C2=O)cc1,748 s
2,O=C(c1ccc2[nH]ccc2c1)N1CCN(C(=O)c2nnn3c2COC(c2ccccc2)C3)CC1 (stereo not drawn),793 s
3,Cc1cc(C)c(S(=O)(=O)N2CCN(Cc3cccc(F)c3)C3(CCOCC3)C2)c(C)c1,973 s
4,CSc1ccccc1C(=O)N(CCN(C)C)c1nc2ccc([N+](=O)[O-])cc2s1,615 s
5,COCCCN1CCC(NC(=O)c2cc(Cl)c(N)c3c2OCC3)CC1,641 s
6,COc1ccc(CN2CC(C(=O)N3CCN(c4cc(=O)n(C)c(=O)n4C)CC3)CC2=O)cc1 (stereo not drawn),630 s
7,COc1ccc(Nc2nccc(C3CCCN(C(=O)C4CCCCC4)C3)n2)cc1 (stereo not drawn),997 s
8,O=C(NCCOc1ccc2c(c1)OCO2)c1c(F)cccc1F,760 s
9,CCS(=O)(=O)N1CCC(Cn2c(C)cnc2-c2ccccc2)C1 (stereo not drawn),576 s
10,CCCN1CCN(C(=O)C(C)C2CCN(S(=O)(=O)c3ccc(Cl)s3)CC2)CC1 (stereo not drawn),674 s
11,CCN1C(=O)C2CC3(CCN(Cc4cn(C)c5ccc(OC)cc45)CC3)CN2C1=O (stereo not drawn),584 s
12,Cn1cc(C2=C(c3cn(C4CCN(Cc5ccccn5)CC4)c4ccccc34)C(=O)NC2=O)c2ccccc21,753 s
13,CC1=C(c2ccc(C)c(C)c2)S(=O)(=O)N=C1N1CCC(C(=O)NCCN2CCOCC2)CC1,648 s
14,FC(F)(F)c1ccc(CN2CCN(c3cnn4cnnc4c3)CC2)cc1,594 s
15,O=C(CN1CCCc2nc(C3CC3)ncc2C1=O)NCC1CC1,638 s
16,CCOc1ccc(N2CCCCn3c2nc2c3c(=O)n(CC(C)C)c(=O)n2C)cc1,1110 s
17,Cc1cccc(N2CCN(S(=O)(=O)c3cc(-c4nnc(C5CC5)o4)co3)CC2)c1,1020 s
18,Cc1ccc(N2CCN(C(=O)c3cn4nc(Cl)ccc4n3)CC2)cc1,823 s
19,Cc1cc(C)c2c(N3CCOCC3)nc(C(=O)NCC3CCCO3)nc2n1 (stereo not drawn),585 s

row,SMILES,RP-LC retention time
1,CCc1cc(=O)n(CC(=O)Nc2ccc(C)cc2Cl)c(N2CCOCC2)n1,942 s
2,Cc1cccc(N2CCN(c3ccc4cc(S(=O)(=O)N5CCC(C)CC5)ccc4n3)CC2C)c1 (stereo not drawn),1200 s
3,O=c1c2cc(-c3ccc(Br)cc3)nn2cnn1Cc1nc(-c2ccc(F)cc2)no1,1210 s
4,Cn1nc(C2CCCNC2)n(Cc2ccccc2)c1=O (stereo not drawn),556 s
5,CCc1nc(OCC(=O)NCCOC)c2c(-c3ccc(F)cc3)noc2n1,845 s
6,COCC(=O)Nc1cnc(-c2ccc(C(F)(F)F)cc2)nc1,922 s
7,Cc1nc(N2CCOCC2)c2c(C(=O)Nc3ccc(C)c(C)c3)c(C)oc2n1,882 s
8,CCn1c(N2CCC(C(=O)NCCCOC)CC2)cc(=O)n(C)c1=O,610 s
9,COCc1ncc(C)n1C1CCN(C(=O)c2noc(C)c2Cc2c(C)noc2C)C1 (stereo not drawn),617 s
10,Cc1ccc(-c2nnc(Cc3nc(-c4ccccc4F)no3)o2)cc1C,1040 s
11,CC(C)(C)NC(=O)N1CCC(CNC(=O)c2ccsc2)CC1,657 s
12,COc1cccc(CN2CCC3(CC2)NCCc2c3[nH]c3ccc(OC)cc23)c1,589 s
13,CCNC(=O)Nc1ccc2c(c1)CN(CC1CCCCC1)CCO2,610 s
14,COc1ccccc1C(=O)NC1(C(F)(F)F)C(=O)N(C2CCCC2)C(C)=C1C(C)=O (stereo not drawn),1000 s
15,CCCCOc1ccc(C(=O)Nc2cc(C)no2)cc1,908 s
16,COCCNc1ncc(C(=O)O)c(-c2cccc(C)c2)n1,700 s
17,COc1cc(NC(=O)c2[nH]c3cc(C)sc3c2CN2CCOCC2)cc(OC)c1,718 s
18,Cc1nnc(NC(=O)CCc2c(C)[nH]c(=O)[nH]c2=O)s1,547 s
19,O=C(NC1CC1)C1CCCN(S(=O)(=O)c2c[nH]c(C(=O)N3CCCCCC3)c2)C1 (stereo not drawn),702 s

row,SMILES,RP-LC retention time
1,COc1cc(-c2nc(C3CC(=O)N(c4ccc(C)cc4)C3)no2)cc(OC)c1OC (stereo not drawn),834 s
2,O=C(CC1CCCC1)NC(c1ccccc1)c1nnc(N2CCCCC2)o1 (stereo not drawn),881 s
3,Cc1cccc(NC(=O)N2CCC(CC(=O)N3CCCCC3)CC2)c1C,751 s
4,O=C(CSc1cc(N2CCN(c3ccccc3F)CC2)ncn1)NC1CCCC1,963 s
5,COc1cc(C)nc(-n2nc(C)cc2OC)n1,711 s
6,CCn1c(=O)sc2cc(S(=O)(=O)N3CCC(C(=O)NCCC4=CCCCC4)CC3)ccc21,958 s
7,COc1cccc(S(=O)(=O)N2CCC([C@H]3[C@@H](OC)C(=O)N3C(C)C)CC2)c1,868 s
8,COC(=O)[C@H](CCSC)NC(=O)c1cccc(-n2cnnn2)c1,707 s
9,CCC(C)NC(=O)c1nnc(-c2ccc(S(=O)(=O)N3CCCCC3)cc2)o1 (stereo not drawn),961 s
10,COc1ccc(CNC(=O)N2CCC(c3cc(N)on3)CC2)cc1,642 s
11,CCc1ccc(C(=O)N2CCc3[nH]nc(C(=O)N(C)C)c3C2)cc1,659 s
12,CCCc1noc(-c2ccc(-n3ncc(C(=O)N4CCCC(C)C4)c3C)nc2)n1 (stereo not drawn),1130 s
13,CCOC(=O)c1[nH]c(C)c(CCC(=O)N2CCC(C(=O)NCc3cccs3)CC2)c1C,755 s
14,NC(=O)C1CCN(C(=O)c2ccc(CN3C(=O)CCn4nc(-c5ccc(Cl)cc5)cc43)cc2)CC1,713 s
15,CCn1nc(C)c(CNC(=O)Nc2cc(OC)c(OC)c(OC)c2)c1C,615 s
16,O=C(c1cc(-c2ccncc2)n[nH]1)N1CCC(C(=O)N2CCN(c3ccc(F)cc3)CC2)CC1,611 s
17,Cc1oc2c(c1C(=O)Nc1cccc(Br)c1)C1=NCCN1C=N2,643 s
18,Cc1ccc(N2CCC(NS(=O)(=O)c3ccccc3F)C2=O)cc1 (stereo not drawn),894 s
19,CCOc1cccc(-c2noc(-c3nnn4c3COC(c3ccc(F)cc3)C4)n2)c1 (stereo not drawn),1190 s
